This note sets out measurements from patent US20250332173A1, “COMPOUNDS AND METHODS FOR MODULATING NUCLEIC ACID SPLICING” (REMIX THERAPEUTICS INC., priority 2021, published 2025).

Holding throughout (format): cell-based, human
For assay [1], the system named is HTT mRNA. Nature of the assay: RT-qPCR splicing assay, HTT canonical junction (CJ) and alternative junction (AJ) mRNA. The note with it: Homo sapiens; for AC50: increase in HTT alternative junction (AJ) mRNA, read-out: HTT AJ AC50. Put shortly: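 A673 cells (normalized to PPIA) or K562 cells (normalized to GAPDH or GUSB) were treated 24 h at 37 °C with an 11-point 3-fold dilution series, top 10 uM, DMSO ≤0.25%. Cell lysates went to one-step RT-qPCR measuring canonical- and alternative-junction MYB or HTT transcripts.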
On the technique in general: Real-time PCR tracks product formation cycle by cycle.

The test system of assay [2] is MYB. Description: HiBiT protein abundance assay, MYB HiBiT K562 cell line. The note with it: HiBiT K562 cell line, 24 hours, top dose 10 μM; read-out: Effect on protein abundance, MYB (IC50 category). Put shortly: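 K562 knock-in lines with endogenous HiBiT-tagged target, 10,000 cells/well in IMDM + FBS, treated 24 h at 37° C with 10-point 3-fold dilutions (top 10 μM final; DMSO ≤0.25%). Lytic Nano-Glo HiBiT luminescence normalized to untagged K562 baseline and DMSO controls; IC50 = concentration giving 50% abundance via four-parameter fit.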

The test system of assay [3] is Target C. Nature of the assay: HiBiT protein abundance assay, Target C (Promega Nano-Glo HiBiT Lytic Detection System, knock-in K562 cell line). The note with it: Homo sapiens, K562, 24 h, HiBiT K562 cell line, 24 hours, top dose 10 μM; read-out: Effect on protein abundance, Target C (IC50 category). Put shortly: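 Knock-in K562 cells carrying HiBiT-tagged Target C, 10,000 per well, treated 24 h at 37 °C with 10-point threefold dilutions (top 10 μM final, ≤0.25% DMSO). Lytic HiBiT luminescence read; response normalised to unmodified K562 and DMSO controls, four-parameter fit interpolated at 50% for IC50.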

The mark [4] stands for this setting: decrease in HTT canonical junction (CJ) mRNA, RT-qPCR, read-out: HTT CJ IC50.
Setting [5] is: canonical junction qPCR panel, Table 5, read-out: HTT (decrease in CJ mRNA levels, IC50).

Where two headings read alike, the source gives them in different places.

Consider `Cc1c(O)c(-c2ncc3c(=O)n([C@@H]4CCN[C@H](C)C4)ccc3n2)cc2cn(C)nc12` [Compound 1434, 2-(6-hydroxy-2,7-dimethyl-indazol-5-yl)-6-(2-methyl-4-piperidyl)pyrido[4,3-d]pyrimidin-5-one], for which the IC50 – broadly, the midpoint of a concentration-inhibition curve – was 1000 to 10000 nM in assay [1] (setting [4]), 100 to 1000 nM in assay [1] (setting [5]), 100 to 1000 nM in assay [2] and 1000 to 10000 nM in assay [3]. For the same compound, in assay [1] (RT-qPCR), the AC50 – broadly, the concentration giving half of the maximal activity seen – fell in the range of 100 to 1000 nM.

As for `Cc1c(O)c(-c2ncc3c(=O)n([C@H]4CCNC(C)(C)C4)ccc3n2)cc2cn(C)nc12` [Compound 1436], the IC50 in assay [1] (setting [4]) is 1000 to 10000 nM; in assay [1] (setting [5]), 1000 to 10000 nM; in assay [2], less than 100 nM; in assay [3], 100 to 1000 nM. The AC50 in assay [1] (RT-qPCR) was 1000 to 10000 nM.

Take `Cc1cn2nc(-c3ccc4c(=O)n([C@H]5CCNC5)ccc4n3)cc(C)c2n1` [Compound 1437, 2-(2,8-dimethylimidazo[1,2-b]pyridazin-6-yl)-6-[(3S)-pyrrolidin-3-yl]-1,6-aphthyridin-5-one]: the IC50 in assay [1] (setting [4]) lay within 1000 to 10000 nM; in assay [1] (setting [5]), 1000 to 10000 nM; in assay [2] it was 100 to 1000 nM; in assay [3], 1000 to 10000 nM. Further, the AC50 in assay [1] (RT-qPCR) was 1000 to 10000 nM.

As for `Cc1cn2nc(-c3ccc4c(=O)n([C@@H]5CCNC5)ccc4n3)cc(C)c2n1` [Compound 1438, 2-(2,8-dimethylimidazo[1,2-b]pyridazin-6-yl)-6-[(3R)-pyrrolidin-3-yl]-1,6-naphthyridin-5-one], the IC50 in assay [1] (setting [4]) was 1000 to 10000 nM; in assay [1] (setting [5]), 1000 to 10000 nM; in assay [2], 100 to 1000 nM; in assay [3], 1000 to 10000 nM. The AC50 in assay [1] (RT-qPCR) lay within 1000 to 10000 nM.

Consider `Cc1c(O)c(-c2ncc3c(=O)n([C@H]4CCN[C@@H](C)C4)ccc3n2)cc2cn(C)nc12` [Compound 1441, 2-(6-hydroxy-2,7-dimethyl-indazol-5-yl)-6-(2-methyl-4-piperidyl)pyrido[4,3-d]pyrimidin-5-one], for which the IC50 in assay [1] (setting [4]) was 100 to 1000 nM; in assay [1] (setting [5]), 100 to 1000 nM; in assay [2], less than 100 nM; in assay [3], 100 to 1000 nM. Also, the AC50 in assay [1] (RT-qPCR) was 100 to 1000 nM.

With `Cc1c(O)c(-c2ncc3c(=O)n(C4CCNC(C)(C)C4)ccc3n2)cc2cn(C)nc12` (stereo not drawn) [Compound 1442], the IC50 in assay [1] (setting [4]) was 1000 to 10000 nM; in assay [1] (setting [5]) it was 100 to 1000 nM; in assay [2], less than 100 nM; in assay [3], 100 to 1000 nM. Also, the AC50 in assay [1] (RT-qPCR) was in the range of 100 to 1000 nM.

`Cc1c(O)c(-c2ncc3c(=O)n([C@@H]4C[C@H]5C[C@@H]4CN5)ccc3n2)cc2cn(C)nc12` [Compound 1445, 6-[(1R,4R,5R)-2-azabicyclo[2.2.1]heptan-5-yl]-2(6-hydroxy-2,7-dimethyl-indazol-5-yl)pyrido[4,3-d]pyrimidin-5-one]: the IC50 is greater than 10000 nM in assay [1] (setting [4]), greater than 10000 nM in assay [1] (setting [5]), 1000 to 10000 nM in assay [2] and greater than 10000 nM in assay [3]. In addition, the AC50 in assay [1] (RT-qPCR) is greater than 10000 nM.

Turning to `Cc1c(O)c(-c2ccc3c(=O)n(C4CC(C)NC(C)C4)ccc3n2)cc2cn(C)nc12` (stereo not drawn) [Compound 1447, 6-(2,6-dimethyl-4-piperidyl)-2-(6-hydroxy-2,7-dimethyl-indazol-5-yl)-1,6-naphthyridin-5-one], the IC50 in assay [1] (setting [4]) is 100 to 1000 nM; in assay [1] (setting [5]), 100 to 1000 nM; in assay [2], less than 100 nM; in assay [3], 100 to 1000 nM. Also, in assay [1] (RT-qPCR), the AC50 was in the range of 100 to 1000 nM.

`Cc1cn2cc(-c3cc(O)c4c(=O)n(C5CCNCC5)ccc4n3)cc(F)c2n1` [Compound 1448]: the IC50 in assay [1] (setting [4]) lay within 1000 to 10000 nM; in assay [1] (setting [5]) it was 100 to 1000 nM; in assay [2] it was 100 to 1000 nM; in assay [3], 100 to 1000 nM. For the same compound, the AC50 in assay [1] (RT-qPCR) lay in the range of 100 to 1000 nM.

`Cc1c(O)c(-c2ccc3c(=O)n([C@H]4CCNC4)ccc3n2)cc2cn(C)nc12` [Compound 1449, 2-(6-hydroxy-2,7-dimethyl-indazol-5-yl)-6-[(3S)-pyrrolidin-3-yl]-1,6-naphthyridin-5-one]: the IC50 lay in the range of 1000 to 10000 nM in assay [1] (setting [4]), 1000 to 10000 nM in assay [1] (setting [5]), 100 to 1000 nM in assay [2] and 1000 to 10000 nM in assay [3]. Besides, the AC50 in assay [1] (RT-qPCR) lay in the range of 1000 to 10000 nM.

With `Cc1c(O)c(-c2ccc3c(=O)n([C@@H]4CCNC4)ccc3n2)cc2cn(C)nc12` [Compound 1450, 2-(6-hydroxy-2,7-dimethyl-indazol-5-yl)-6-[(3R)-pyrrolidin-3-yl]-1,6-naphthyridin-5-one], the IC50 in assay [1] (setting [4]) is 1000 to 10000 nM; in assay [1] (setting [5]), 1000 to 10000 nM; in assay [2], 100 to 1000 nM; in assay [3], 1000 to 10000 nM. In assay [1] (RT-qPCR), the AC50 lay in the range of 1000 to 10000 nM.

`Cn1cc2cc(-c3ccc4c(=O)n([C@H]5CCNC5)ccc4n3)c(O)c(F)c2n1` [Compound 1451, 2-(7-fluoro-6-hydroxy-2-methyl-indazol-5-yl)-6-[(3S)-pyrrolidin-3-yl]-1,6-naphthyridin-5-one]: the IC50 in assay [1] (setting [4]), in assay [1] (setting [5]), in assay [2] and in assay [3] was 100 to 1000 nM each time. The AC50 in assay [1] (RT-qPCR) is 100 to 1000 nM.

On to `Cn1cc2cc(-c3ccc4c(=O)n([C@@H]5CCNC5)ccc4n3)c(O)c(F)c2n1` [Compound 1452, 2-(7-fluoro-6-hydroxy-2-methyl-indazol-5-yl)-6-[(3R)-pyrrolidin-3-yl]-1,6-naphthyridin-5-one], for which the IC50 in assay [1] (setting [4]), in assay [1] (setting [5]), in assay [2] and in assay [3] was 100 to 1000 nM in each case. In assay [1] (RT-qPCR), the AC50 lay in the range of 100 to 1000 nM.

For `Cc1c(O)c(-c2ncc3c(=O)n([C@@H]4C[C@@H](C)N[C@@H](C)C4)ccc3n2)cc2cn(C)nc12` [Compound 1453, 6-[(2S,6R)-2,6-dimethyl-4-piperidyl]-2-(6-hydroxy-2,7-dimethyl-indazol-5-yl)pyrido[4,3-d]pyrimidin-5-one], the IC50 is greater than 10000 nM in assay [1] (setting [4]), 1000 to 10000 nM in assay [1] (setting [5]), 100 to 1000 nM in assay [2] and greater than 10000 nM in assay [3]. Besides, the AC50 in assay [1] (RT-qPCR) was 1000 to 10000 nM.

For the compound `Cc1c(O)c(-c2ncc3c(=O)n(C4C[C@@H](C)N[C@H](C)C4)ccc3n2)cc2cn(C)nc12` (stereo partly drawn) [Compound 1454, 6-[(2R,6R)-2,6-dimethyl-4-piperidyl]-2-(6-hydroxy-2,7-dimethyl-indazol-5-yl)pyrido[4,3-d]pyrimidin-5-one], the IC50 is 1000 to 10000 nM in assay [1] (setting [4]), 100 to 1000 nM in assay [1] (setting [5]), 100 to 1000 nM in assay [2] and 1000 to 10000 nM in assay [3]. Also, in assay [1] (RT-qPCR), the AC50 was in the range of 100 to 1000 nM.

As to `Cc1c(O)c(-c2ncc3c(=O)n(C4C[C@H](C)N[C@@H](C)C4)ccc3n2)cc2cn(C)nc12` (stereo partly drawn) [Compound 1455, 6-[(2S,6S)-2,6-dimethyl-4-piperidyl]-2-(6-hydroxy-2,7-dimethyl-indazol-5-yl)pyrido[4,3-d]pyrimidin-5-one], the IC50 in assay [1] (setting [4]) is 100 to 1000 nM; in assay [1] (setting [5]) it was 100 to 1000 nM; in assay [2], less than 100 nM; in assay [3] it was 100 to 1000 nM. The AC50 in assay [1] (RT-qPCR) lay in the range of 100 to 1000 nM.

With `Cc1cn2cc(-c3cc(F)c4c(=O)n([C@@H]5CNC[C@H]5F)ccc4c3)cc(F)c2n1` [Compound 1456], the IC50 was greater than 10000 nM in assay [1] (setting [4]), greater than 10000 nM in assay [1] (setting [5]), 1000 to 10000 nM in assay [2] and greater than 10000 nM in assay [3]. In assay [1] (RT-qPCR), the AC50 is greater than 10000 nM.

Regarding `Cc1cn2cc(-c3ncc4c(=O)n([C@@H]5CCNC6(CC6)C5)ccc4n3)cc(F)c2n1` [Compound 1457, 6-[(7R)-4-azaspiro[2.5]octan-7-yl]-2-(8-fluoro-2-methyl-imidazo[1,2-a]pyridin-6-yl)pyrido[4,3-d]pyrimidin-5-one], the IC50 in assay [1] (setting [4]) fell in the range of 1000 to 10000 nM; in assay [1] (setting [5]), 100 to 1000 nM; in assay [2], 100 to 1000 nM; in assay [3], 1000 to 10000 nM. Also, the half-maximal activity concentration (AC50) in assay [1] (RT-qPCR) fell in the range of 100 to 1000 nM.
